One compound from patent US5482964A, “Substituted phenoxyhydroxypropyl amines as central nervous system agents” (Warner-Lambert Company, priority 1994, dated 1996) can be followed below.

The structures appear in SMILES notation.

One series deals with male CF-1 mice. Nature of the series: Maximal electroshock (MES) anticonvulsant screen in mice. Format: in vivo. A general note: Protection in the maximal electroshock model is a classic sign of anticonvulsant action.
A further series concerns the target T1, P-type calcium channels (Rattus norvegicus, UniProt P54282).
T1 construct: Male rats (Sprague-Dawley, 200-220 g) were killed by decapitation and neocortices were isolated by blunt dissection; from tissue; host or cells: Sprague-Dawley rat neocortex, crude synaptosomes
Nature of the series: Inhibition of depolarization induced Ca++ flux (CaFl), 45Ca++ influx into rat neocortical synaptosomes. The class given is biochemical. To be noted: 30 mM KCl stimulated 45Ca flux, rat neocortical synaptosomes. The source says: A large influx of calcium from extracellular compartments into neurons is observed after opening of voltage-dependent calcium channels. The opening of calcium channels may be induced by a K^+ -stimulated depolarization of neuronal membranes. A crude synaptosomal preparation contains small vesicles surrounded by neuronal membranes, and it is feasible to study the opening of voltage-operated calcium channels in such a preparation. In the test described below, the influx of ^45 Ca^++ into rat synaptosomes is studied under depolarized conditions. The effect of the test compounds on the depolarization induced calcium update can thus be studied. The calcium influx measured in this assay is believed to represent the P-type calcium channels.
Male rats (Sprague-Dawley, 200-220 g) were killed by decapitation and neocortices were isolated by blunt dissection. White matter was dissected away and the gray matter was placed in cold sucrose buffer (composition (mM): sucrose 320, TRIS base 5.0, EDTA 0.1; adjusted to pH 7.3 with HCl). The tissue was homogenized using 5 strokes at 500 rpm followed by 4 strokes at 800 rpm. The homogenate was centrifuged at 1075 g for 10 minutes. The pellet was discarded and the supernatant was centrifuged at 15800 g for 10 minutes at 4° C., and the supernatant was discarded. The final pellet was resuspended in incubation buffer and kept on ice.
Fifty-microliter aliquots of neocortical synaptosome suspension were preincubated for 5 minutes at 25° C. in 400 μL of incubation buffer containing drug or control solvent. The synaptosomes were then exposed to a tracer quantity of ^45 CaCl2 (1 μCi/mL) in combination with either 3 mM KCl (basal calcium flux or 30 mM KCl (stimulated calcium flux). The calcium flux was terminated by filtration over glass-fiber filters (GFB) using a Skatron 12-well harvester; filters were washed with a pressurized, continuous flow of 3 mL wash buffer (composition (mM): choline chloride 140, EGTA 3, HEPES 22; adjusted to pH 7.3 with TRIS base). Radioactivity of the filters was measured by scintillation counting. Basal calcium flux was subtracted from stimulated calcium flux in both control- and drug-treated conditions, and data were expressed as percent inhibition of the adjusted control response.

The target in the next series is sodium channels. As to conditions: rat neocortical membranes, 5 nM [3H]batrachotoxinin, Cheng-Prusoff; read-out: BTX Binding.

T1 sequence (P54282 whole entry): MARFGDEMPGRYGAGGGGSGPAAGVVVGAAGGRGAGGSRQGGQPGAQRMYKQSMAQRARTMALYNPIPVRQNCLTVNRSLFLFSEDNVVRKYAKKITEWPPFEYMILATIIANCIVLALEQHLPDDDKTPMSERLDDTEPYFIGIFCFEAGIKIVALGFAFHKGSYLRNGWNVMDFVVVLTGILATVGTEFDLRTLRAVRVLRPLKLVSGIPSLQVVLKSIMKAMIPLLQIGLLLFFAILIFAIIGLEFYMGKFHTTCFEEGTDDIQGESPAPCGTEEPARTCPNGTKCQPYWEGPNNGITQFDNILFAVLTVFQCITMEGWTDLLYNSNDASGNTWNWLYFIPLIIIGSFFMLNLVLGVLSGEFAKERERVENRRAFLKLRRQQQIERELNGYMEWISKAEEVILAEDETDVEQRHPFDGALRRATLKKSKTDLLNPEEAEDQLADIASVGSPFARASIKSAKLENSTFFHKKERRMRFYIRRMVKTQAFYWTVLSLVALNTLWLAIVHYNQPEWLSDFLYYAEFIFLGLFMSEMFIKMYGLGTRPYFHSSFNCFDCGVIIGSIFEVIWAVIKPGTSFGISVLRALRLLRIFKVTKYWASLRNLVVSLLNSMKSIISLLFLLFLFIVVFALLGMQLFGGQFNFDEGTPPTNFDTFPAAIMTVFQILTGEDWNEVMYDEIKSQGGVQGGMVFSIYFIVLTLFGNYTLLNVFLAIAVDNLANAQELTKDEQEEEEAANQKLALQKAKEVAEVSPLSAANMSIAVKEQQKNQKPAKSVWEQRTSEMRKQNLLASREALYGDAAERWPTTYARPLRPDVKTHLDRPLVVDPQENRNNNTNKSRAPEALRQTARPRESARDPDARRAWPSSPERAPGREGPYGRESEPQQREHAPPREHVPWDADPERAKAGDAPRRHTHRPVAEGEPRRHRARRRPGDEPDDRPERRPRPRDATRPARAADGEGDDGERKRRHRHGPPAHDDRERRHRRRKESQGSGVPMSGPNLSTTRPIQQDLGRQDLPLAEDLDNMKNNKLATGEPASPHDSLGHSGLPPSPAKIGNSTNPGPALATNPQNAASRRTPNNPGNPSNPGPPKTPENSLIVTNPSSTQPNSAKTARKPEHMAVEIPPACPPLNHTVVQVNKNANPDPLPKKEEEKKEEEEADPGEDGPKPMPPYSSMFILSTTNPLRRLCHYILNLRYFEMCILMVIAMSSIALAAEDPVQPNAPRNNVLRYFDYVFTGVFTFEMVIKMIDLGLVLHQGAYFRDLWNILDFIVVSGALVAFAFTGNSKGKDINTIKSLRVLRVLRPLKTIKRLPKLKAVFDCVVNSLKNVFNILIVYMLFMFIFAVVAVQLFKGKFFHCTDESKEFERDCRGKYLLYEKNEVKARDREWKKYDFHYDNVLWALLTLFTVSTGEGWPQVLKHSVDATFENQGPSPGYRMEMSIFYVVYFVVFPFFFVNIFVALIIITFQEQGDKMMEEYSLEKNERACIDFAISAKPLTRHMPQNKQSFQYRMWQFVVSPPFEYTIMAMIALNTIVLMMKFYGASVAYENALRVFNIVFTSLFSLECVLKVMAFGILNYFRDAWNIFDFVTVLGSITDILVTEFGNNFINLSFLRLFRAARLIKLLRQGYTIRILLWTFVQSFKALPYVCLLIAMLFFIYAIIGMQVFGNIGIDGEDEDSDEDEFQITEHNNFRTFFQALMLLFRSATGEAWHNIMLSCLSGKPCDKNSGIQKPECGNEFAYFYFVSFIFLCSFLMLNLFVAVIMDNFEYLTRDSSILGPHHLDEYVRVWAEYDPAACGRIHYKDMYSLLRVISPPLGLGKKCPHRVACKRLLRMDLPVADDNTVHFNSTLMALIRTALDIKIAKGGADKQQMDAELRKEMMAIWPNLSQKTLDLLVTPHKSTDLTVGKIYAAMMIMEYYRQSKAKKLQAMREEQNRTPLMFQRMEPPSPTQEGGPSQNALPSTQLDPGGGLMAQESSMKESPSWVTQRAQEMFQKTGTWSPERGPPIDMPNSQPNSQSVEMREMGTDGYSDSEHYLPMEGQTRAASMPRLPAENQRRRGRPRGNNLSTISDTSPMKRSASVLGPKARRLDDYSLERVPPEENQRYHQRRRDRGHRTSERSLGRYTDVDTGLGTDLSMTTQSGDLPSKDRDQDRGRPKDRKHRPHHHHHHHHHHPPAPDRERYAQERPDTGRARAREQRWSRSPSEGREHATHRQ
Description for male CF-1 mice: All experiments were conducted on male CF-1 mice (Charles River Laboratory, Portage, Mich.). The mice weighed 20 to 35 g and were allowed free access to food and water prior to testing. The compounds were dissolved in various solutions of up to 50% organic solvents and 50% buffered solutions. All doses were injected intravenously (IV) in a volume of 1.0 mL per 100 g of body weight using a 25-gauge needle and a 1 cc syringe. Doses of the compounds were calculated as the free base.
Maximal electroshock was administered via corneal electrodes with an electroshock apparatus (Wahlquist Instrument Company) immediately following the inverted screen test. The stimulus consisted of a 50 mA current (100 mA peak-to-peak) and duration of 0.2 seconds. The protocol for the MES assay involved groups of five mice per dose at each time period postdose. […] The mice were sacrificed with carbon dioxide immediately after MES. Anticonvulsant data were recorded as the number of mice protected from MES out of five. Two out of five were considered active.

For `COc1ccc(CCN(C)CC(O)COc2ccc(C3CCCCC3)cc2C)cc1OC` (centres unmarked) [Example 24, 1-(4-Cyclohexyl-2-methylphenoxy)-3-{[2-(3,4-dimethoxyphenyl)-ethyl]-methylamino}-propan-2-ol], the “MES, number of mice protected” value with male CF-1 mice (1 mg/kg IV, 3 min postdose) is listed as 0/5; in the series on male CF-1 mice (1 mg/kg IV, 30 min postdose), 0/5; with male CF-1 mice (3 mg/kg IV, 3 min postdose) it was 0/5; in the series on male CF-1 mice (3 mg/kg IV, 30 min postdose) it was 1/5; with male CF-1 mice (3 mg/kg IV, 1 hr postdose), 1/5; with male CF-1 mice (10 mg/kg IV, 3 min postdose), 4/5. Besides, the “MES, number of mice protected” value with male CF-1 mice (10 mg/kg IV, 30 min postdose) was 4/5; in the series with male CF-1 mice (10 mg/kg IV, 1 hr postdose), 3/4. The “Animals died in this group” value in the series with male CF-1 mice (10 mg/kg IV, 1 hr group) is given as 1/5. Further, the 50% inhibitory concentration (IC50) at P-type calcium channels stood at 2100 nM. For the same compound, on sodium channels, the Ki is 310 nM.

By IC50 is commonly meant the concentration needed to halve the response being measured.
